From US10905738B2, “Synthetic peptides, prodrugs, pharmaceutical compositions and uses” (Biozeus Desenvolvimento De Produtos Biofarmacêuticos, priority 2018, dated 2021)

Columns and labels:
[1] = test system: smooth muscle of tracheal rings; assay: spasmodic contraction of tracheal rings ex vivo (histamine-induced); parameters: species or system Dunkin-Hartley guinea pigs; details: for relaxing effect on airway (tracheal ring) smooth muscle, in words: histamine-induced contraction ex vivo; for Effectiveness (Emax) (%): relaxation of tracheal rings contracted by histamine (50 μM); for Effectiveness (Emax) (%) / Potency (pEC50) Molar: mean±SEM; for Potency (pEC50) Molar: tracheal rings contracted by histamine (50 μM), peptides 0.01 to 10 μM
Experimental: The magnitude of the relaxing effect of the peptides was evaluated by means of a model of spasmodic contraction of tracheal rings ex vivo, largely employed to test new bronchodilating agents (see CULLUM, V. A., FARMER, J. B., JACK, D., LEVY, G. P. Salbutamol: a new, selective β-adrenoceptive receptor stimulant. British journal of pharmacology, 35(1): 141-151. 1969; KAO, C. H., CHU, Y. H., WANG, H. W. Effects of lidocaine on rat's isolated tracheal smooth muscle. European Archives of Oto-Rhino-Laryngology, 267(5): 817-820. 2010; SORIANO-URSÚA, M. A., VALENCIA-HERNÁNDEZ, I., ARELLANO-MENDOZA, M. G., CORREA-BASURTO, J., TRUJILLO-FERRARA, J. G. Synthesis, pharmacological and in silico evaluation of 1-(4-dihydroxy-3, 5-dioxa-4-borabycyclo [4.4.0] deca-7,9,11-trien-9-yl)-2-(tert-butylamine) ethanol, a compound designed to act as a β2 adrenoceptor agonist. European journal of medicinal chemistry, 44(7): 2840-2846. 2009).
For each test, Dunkin-Hartley guinea pigs (400-500 g) were euthanized in a CO2 atmosphere; subsequently, the trachea was exposed, removed and sectioned in segments of 1 to 3 cartilaginous tracheal rings. Each segment was transferred to an individual organ bath system containing Krebs nutritive solution (NaCl 118 mM; KCl […]; CaCl2) 2.5 mM; MgSO4 1.2 mM; KH2PO4 1.2 mM; NaHCO324 mM; glucose 11 mM) at 37° C., under constant aeration with a carbogenic mixture (95% of O2 and 5% of CO2). In each system, a stem fixed to the base of the container and another connected to an isometric transducer (GRASS FT-03) made up the support of the fragments. A data digitizing system connected to the isometric transducer allowed the recording of tension variations produced by the contraction of the tracheal rings (PowerLab™ 16/30, LabChart, version 8.1, AD Instruments, Australia). The basal tension was adjusted to 1 g, and subsequently, the contractility of the fragments was evaluated by a stimulus with carbachol (2.5 μM). After 1 h at rest, the basal tension was recovered and the tissues were subjected to contraction induced by histamine (50 μM) followed by exposure to increasing concentrations of the treatments (0.01 to 10 μM; n=8) or the comparator PnTx(19).
Table 1 lists the mean±SEM of the potency values, shown as the negative logarithm of the concentration that reduced the voltage to 50% of the maximum Histamine-induced contraction (pEC50), and efficacy (Emax), calculated from at least 8 independent tests using the sigmoid nonlinear regression equation of the software Graph Prism 5.0 (GraphPad Software, La Jolla, Ca, USA).

[2] = test system: smooth muscle of pulmonary arteries; assay: relaxation of pulmonary arteries contracted with phenylephrine ex vivo; parameters: species or system male Wistar rats; details: n = 9; for pEC50: pulmonary arteries contracted with phenylephrine, peptides 1 nM-10 μM, mean±SEM; for Effectiveness (Emax) (%): relaxation percentage related to maximum phenylephrine contraction
Source text: The ex vivo model of pulmonary artery smooth muscle contraction with phenylephrine is very useful to screen candidate compounds for lung diseases that demand vasodilating effects (ALENCAR, A. K., PEREIRA, S. L., MONTAGNOLI, T. L., MAIA, R. C., KUMMERLE, A. E., LANDGRAF, S. S., CARUSO-NEVES, C., FERRAZ, E. B., TESCH, R., NASCIMENTO, J. H., DE SANT'ANNA, C. M., FRAGA, C. A., BARREIRO, E. J., SUDO, R. T., ZAPATA-SUDO, G. Beneficial effects of a novel agonist of the adenosine A2A receptor on monocrotaline-induced pulmonary hypertension in rats. Br J Pharmacol, 169: 953-62. 2013).
Rats were anesthetized with midazolam and ketamine (2 mg/kg and 100 mg/kg, respectively) via intraperitoneal administration. After infusion of a lethal dose of sodium thiopental via intraperitoneal administration (50 mg/kg), the trunk of the pulmonary artery was carefully removed via sternotomy. The pulmonary artery was carefully dissected and the connective tissue removed. The arteries were connected to a force transductor, positioned in vertical chambers filled with Krebs solution, oxygenated and kept at 37° C.
After a stabilization period of 2 hours at a tension of 1.5 grams, the arteries were exposed to increasing doses of phenylephrine (1 nM-10 μM) in order to obtain maximum smooth muscle contraction and then exposed to increasing doses of selected peptides in the concentrations of 1 nM-10 μM each (n=9). The tension generated by the pulmonary artery was evaluated at intervals of 5 minutes for each dose (ALENCAR, A. K., PEREIRA, S. L., MONTAGNOLI, T. L., MAIA, R. C., KUMMERLE, A. E., LANDGRAF, S. S., CARUSO-NEVES, C., FERRAZ, E. B., TESCH, R., NASCIMENTO, J. H., DE SANT'ANNA, C. M., FRAGA, C. A., BARREIRO, E. J., SUDO, R. T., ZAPATA-SUDO, G. Beneficial effects of a novel agonist of the adenosine A2A receptor on monocrotaline-induced pulmonary hypertension in rats. Br J Pharmacol 169: 953-62. 2013; ALENCAR, A. K., PEREIRA, S. L., DA SILVA, F. E., MENDES, L. V., CUNHA VDO, M., LIMA, L. M., MONTAGNOLI, T. L., CARUSO-NEVES, C., FERRAZ, E. B., TESCH, R., NASCIMENTO, J. H., SANT'ANNA, C. M., FRAGA, C. A., BARREIRO, E. J., SUDO, R. T., ZAPATA-SUDO, G. N-acylhydrazone derivative ameliorates monocrotaline-induced pulmonary hypertension through the modulation of adenosine AA2R activity. International Journal of Cardiology, 173(2): 154-62. 2014).
Potency values are shown as the negative logarithm of the concentration that reduced the voltage to 50% of the maximum phenylephrine-induced contraction (pEC50), and they are expressed as mean±SEM. The maximum contraction achieved in a given artery was considered to be 100% of contraction, and the effectiveness (Emax) was expressed as the relaxation percentage related to this maximum value. The results were calculated from at least 3 independent tests using the sigmoid non-linear regression equation, and the statistical analysis of the concentration curve was done by performing a nonlinear fit of the logarithmic of the agonist versus response. All the above calculations were performed on the software Graph Prism 5.0 (GraphPad Software, La Jolla, Calif., USA). Tension analysis was performed on the software LabChart7 (AD Instruments, Sydney, Australia). As a cutoff to determine biological significance, we considered pulmonary artery relaxation values above 30% as biologically relevant, considered those as active and then calculated the Emax values (SUN, C. K., LIN, Y. C., YUEN, C. M., CHUA, S., CHANG, L. T., SHEU, J. J., LEE, F. Y., FU, M., LEU, S., YIP, H. K. Enhanced protection against pulmonary hypertension with sildenafil and endothelial progenitor cell in rats. International journal of cardiology, 162(1): 45-58. 2012; ALENCAR, A. K., PEREIRA, S. L., DA SILVA, F. E., MENDES, L. V., CUNHA VDO, M., LIMA, L. M., MONTAGNOLI, T. L., CARUSO-NEVES, C., FERRAZ, E. B., TESCH, R., NASCIMENTO, J. H., SANT'ANNA, C. M., FRAGA, C. […]

## AQYFWIAWYKLANSK [SEQ ID NO: 4, Ac-Ala-Gln-Tyr-Phe-Trp-Ile-Ala-Trp-Tyr-Lys-Leu-Ala-Asn-Ser-Lys-NH2]
[1]
  relaxing effect on airway (tracheal ring) smooth muscle, in words: effective
  Effectiveness (Emax) (%): 38.8 ± 3.5%
  Potency (pEC50) Molar: 6.8 ± 0.3 Molar

## IAWYKGGGGGIAWYK [SEQ ID NO: 28, Ac-Ile-Ala-Trp-Tyr-Lys-Gly-Gly-Gly-Gly-Gly-Ile-Ala-Trp-Tyr-Lys-NH2]
[1]
  Effectiveness (Emax) (%): Inactive
  Potency (pEC50) Molar: Inactive

## IAWYKGGGGGIAWYKGGGGGIAWYK [SEQ ID NO: 30]
[1]
  Effectiveness (Emax) (%): Inactive
  Potency (pEC50) Molar: Inactive

## IAWYKRGGGGGRKYWAI [SEQ ID NO: 29, Ac-Ile-Ala-Trp-Tyr-Lys-Arg-Gly-Gly-Gly-Gly-Gly-Arg-Lys-Tyr-Trp-Ala-Ile-NH2]
[1]
  Effectiveness (Emax) (%): Inactive
  Potency (pEC50) Molar: Inactive

## QYFWIAWYKLANS [SEQ ID NO: 17, Ac-Gln-Tyr-Phe-Trp-Ile-Ala-Trp-Tyr-Lys-Leu-Ala-Asn-Ser-NH2]
[2]
  pEC50: 7.8 ± 3.0
  Effectiveness (Emax) (%): 15% ± 2.6
[1]
  Effectiveness (Emax) (%): 37.1 ± 2.6%
  Potency (pEC50) Molar: 6.8 ± 0.3 Molar

## RAYFWIAWYKLANSK [SEQ ID NO: 1, Ac-Arg-Ala-Tyr-Phe-Trp-Ile-Ala-Trp-Tyr-Lys-Leu-Ala-Asn-Ser-Lys-NH2]
[1]
  relaxing effect on airway (tracheal ring) smooth muscle, in words: effective
  Effectiveness (Emax) (%): 45.7 ± 4.3%
  Potency (pEC50) Molar: 7.1 ± 0.4 Molar

## RQAFWIAWYKLANSK [SEQ ID NO: 3, Ac-Arg-Gln-Ala-Phe-Trp-Ile-Ala-Trp-Tyr-Lys-Leu-Ala-Asn-Ser-Lys-NH2]
[1]
  relaxing effect on airway (tracheal ring) smooth muscle, in words: effective
  Effectiveness (Emax) (%): 36.7 ± 1.9%
  Potency (pEC50) Molar: 6.8 ± 0.2 Molar

## RQYFWIAW [SEQ ID NO: 22, Ac-Arg-Gln-Tyr-Phe-Trp-Ile-Ala-Trp-NH2]
[2]
  pEC50: 5.8 ± 3.1
  Effectiveness (Emax) (%): 8% ± 2.83
[1]
  Effectiveness (Emax) (%): 35.2 ± 1.8%
  Potency (pEC50) Molar: 7.0 ± 0.2 Molar

## RQYFWIAWY [SEQ ID NO: 20, Ac-Arg-Gln-Tyr-Phe-Trp-Ile-Ala-Trp-Tyr-NH2]
[2]
  pEC50: 6.1 ± 6.9
  Effectiveness (Emax) (%): 6% ± 7.64
[1]
  Effectiveness (Emax) (%): 37.8 ± 2.9%
  Potency (pEC50) Molar: 7.1 ± 0.3 Molar

## RQYFWIAWYKIASNK [SEQ ID NO: 6, Ac-Arg-Gln-Tyr-Phe-Trp-Ile-Ala-Trp-Tyr-Lys-Ile-Ala-Ser-Asn-Lys-NH2]
[1]
  Effectiveness (Emax) (%): 25.3 ± 1.7%
  Potency (pEC50) Molar: 7.0 ± 0.3 Molar

## RQYFWIAWYKLANSA [SEQ ID NO: 2, Ac-Arg-Gln-Tyr-Phe-Trp-Ile-Ala-Trp-Tyr-Lys-Leu-Ala-Asn-Ser-Ala-NH2]
[1]
  relaxing effect on airway (tracheal ring) smooth muscle, in words: effective
  Effectiveness (Emax) (%): 40.4 ± 2.6%
  Potency (pEC50) Molar: 6.9 ± 0.2 Molar

## WIAWYKL [SEQ ID NO: 23, Ac-Trp-Ile-Ala-Trp-Tyr-Lys-Leu-NH2]
[2]
  pEC50: 6.1 ± 6.2
  Effectiveness (Emax) (%): 4% ± 6.07
[1]
  Effectiveness (Emax) (%): 35.5 ± 2.3%
  Potency (pEC50) Molar: 7.5 ± 0.3 Molar

## YFWIAWYKLAN [SEQ ID NO: 18, Ac-Tyr-Phe-Trp-Ile-Ala-Trp-Tyr-Lys-Leu-Ala-Asn-NH2]
[2]
  pEC50: 6.5 ± 9.3
  Effectiveness (Emax) (%): 18% ± 9.12
[1]
  Effectiveness (Emax) (%): 38.0 ± 2.3%
  Potency (pEC50) Molar: 7.2 ± 0.3 Molar
